Reference: the NIST ThermoML archive (doi:10.1016/j.jct.2007.06.002)
Several values for one entry are separate records, joined by “and”; a condition that tells them apart may be missing. Identical values can stand only once. Numbers after ± are expanded uncertainties.

Legend:
[1] = 101 kPa, Liquid
[2] = refractive index (Na D-line) (dimensionless); conditions: 298.15 K; 101.33 kPa; Liquid
[3] = xn = mol fraction of the nth substance listed; conditions: 101 kPa, Liquid
[4] = refractive index (Na D-line) (dimensionless); xn = mol fraction of the nth substance listed; conditions: 298.15 K, 101 kPa, Liquid

COCCOC [1,2-dimethoxyethane]
[1]
Conditions	mass density [kg/m3]
298.15 K	864.47 ± 1.5
308.15 K	853.47 ± 1.6
318.15 K	842.27 ± 1.6

Conditions	refractive index
[2]	1.379 ± 0.0013

COCCOC [1,2-dimethoxyethane] + CCCCn1cc[n+](C)c1.F[P-](F)(F)(F)(F)F
mass density [kg/m3], [3]
Conditions	x2 = 0	x2 = 0.0125	x2 = 0.0416	x2 = 0.1055	x2 = 0.1219	x2 = 0.2474	x2 = 0.3744	x2 = 0.4937	x2 = 0.7092	x2 = 0.9329
298.15 K	864.47 ± 1.5	879.28 ± 1.4	912.09 ± 1.2	976.53 ± 0.91	991.51 ± 0.85	1089.14 ± 1.4	1164.22 ± 2	1219.89 ± 2.5	1296.36 ± 3.3	1353.78 ± 4.1
308.15 K	853.47 ± 1.6	868.36 ± 1.5	901.37 ± 1.3	966.23 ± 0.96	981.31 ± 0.89	1079.57 ± 1.4	1155.09 ± 2	1211.03 ± 2.5	1287.72 ± 3.3	1345.27 ± 4
318.15 K	842.27 ± 1.6	857.25 ± 1.6	890.47 ± 1.4	955.79 ± 1	971 ± 0.94	1069.97 ± 1.3	1145.98 ± 1.9	1202.22 ± 2.4	1279.25 ± 3.2	1336.85 ± 4

[4]
Conditions	refractive index
x2 = 0	1.379 ± 0.0013
x2 = 0.0041	1.3781 ± 0.0013
x2 = 0.0125	1.3798 ± 0.0013
x2 = 0.0416	1.3859 ± 0.0013
x2 = 0.1055	1.3926 ± 0.0013
x2 = 0.1219	1.3941 ± 0.0013
x2 = 0.2474	1.4009 ± 0.0013
x2 = 0.3744	1.4043 ± 0.0013
x2 = 0.4937	1.4062 ± 0.0013
x2 = 0.7092	1.4076 ± 0.0013
x2 = 0.9329	1.4087 ± 0.0013

CCCCn1cc[n+](C)c1.F[P-](F)(F)(F)(F)F [1-butyl-3-methylimidazolium hexafluorophosphate]
[1]
Conditions	mass density [kg/m3]
298.15 K	1367.88 ± 24
308.15 K	1359.33 ± 23
318.15 K	1350.87 ± 23

Conditions	refractive index
[2]	1.4089 ± 0.0013 and 1.4058 ± 0.0025

CCCCn1cc[n+](C)c1.F[P-](F)(F)(F)(F)F [1-butyl-3-methylimidazolium hexafluorophosphate] + COCCO
mass density [kg/m3], [3]
Conditions	298.15 K	308.15 K	318.15 K
x1 = 0.0037	964.55 ± 5.8	962.53 ± 5.9	945.96 ± 6.7
x1 = 0.0078	969.43 ± 5.5	967.34 ± 5.7	950.88 ± 6.5
x1 = 0.012	974.36 ± 5.3	972.19 ± 5.4	955.82 ± 6.2
x1 = 0.0354	1000.13 ± 4	997.66 ± 4.2	981.7 ± 4.9
x1 = 0.0801	1042.78 ± 6.2	1039.97 ± 6	1024.48 ± 5.3
x1 = 0.1468	1094.24 ± 8.8	1091.12 ± 8.7	1076.09 ± 7.9
x1 = 0.2542	1157.35 ± 12	1153.41 ± 12	1139.53 ± 11
x1 = 0.396	1219.08 ± 15	1213.6 ± 15	1201.72 ± 14
x1 = 0.6104	1284.64 ± 19	1277.88 ± 19	1267.48 ± 18
x1 = 0.8127	1328.13 ± 21	1320.65 ± 21	1311.1 ± 21
x1 = 0.8961	1344.77 ± 22	1336.68 ± 22	1327.9 ± 22
x1 = 0.9345	1352.85 ± 23	1344.49 ± 23	1336 ± 22
x1 = 0.9749	1361.9 ± 24	1353.35 ± 23	1344.99 ± 23
x1 = 1	1367.88 ± 24	1359.33 ± 23	1350.87 ± 23

[4]
Conditions	refractive index
x1 = 0.0037	1.4006 ± 0.0013
x1 = 0.0078	1.401 ± 0.0013
x1 = 0.012	1.4013 ± 0.0013
x1 = 0.0354	1.403 ± 0.0013
x1 = 0.0801	1.405 ± 0.0013
x1 = 0.1468	1.4065 ± 0.0013
x1 = 0.2542	1.4078 ± 0.0013
x1 = 0.396	1.4083 ± 0.0013
x1 = 0.6104	1.4086 ± 0.0013
x1 = 0.8127	1.4086 ± 0.0013
x1 = 0.8961	1.4089 ± 0.0013
x1 = 0.9345	1.409 ± 0.0013
x1 = 0.9749	1.409 ± 0.0013
x1 = 1	1.4089 ± 0.0013

CCCCn1cc[n+](C)c1.F[P-](F)(F)(F)(F)F [1-butyl-3-methylimidazolium hexafluorophosphate] + COCCOC
[3], x1 = 1
Conditions	mass density [kg/m3]
298.15 K	1367.88 ± 4.3
308.15 K	1359.33 ± 4.2
318.15 K	1350.87 ± 4.2

Conditions	refractive index
[4], x1 = 1	1.4089 ± 0.0013

CCCCn1cc[n+](C)c1.F[P-](F)(F)(F)(F)F [1-butyl-3-methylimidazolium hexafluorophosphate] + COCCOCCOC
[3], x1 = 1
Conditions	mass density [kg/m3]
298.15 K	1367.88 ± 4.3
308.15 K	1359.33 ± 4.2
318.15 K	1350.87 ± 4.2

Conditions	refractive index
[4], x1 = 1	1.4058 ± 0.0025

COCCOCCOC [2,5,8-trioxanonane]
[1]
Conditions	mass density [kg/m3]
298.15 K	939.1 ± 1.1
308.15 K	929.6 ± 1.1
318.15 K	919.3 ± 1.2

Conditions	refractive index
[2]	1.4058 ± 0.0025

COCCOCCOC [2,5,8-trioxanonane] + CCCCn1cc[n+](C)c1.F[P-](F)(F)(F)(F)F
mass density [kg/m3], [3]
Conditions	298.15 K	308.15 K	318.15 K
x2 = 0	939.1 ± 1.1	929.6 ± 1.1	919.3 ± 1.2
x2 = 0.0039	942.16 ± 1.1	932.57 ± 1.1	922.34 ± 1.2
x2 = 0.0076	945.03 ± 1	935.37 ± 1.1	925.2 ± 1.1
x2 = 0.0127	948.97 ± 1	939.22 ± 1.1	929.13 ± 1.1
x2 = 0.0304	962.27 ± 0.94	952.3 ± 1	942.43 ± 1.1
x2 = 0.0505	976.74 ± 0.88	966.73 ± 0.93	957.03 ± 0.97
x2 = 0.1003	1010.23 ± 0.85	1000.46 ± 0.79	990.93 ± 0.83
x2 = 0.1617	1047.81 ± 1.1	1038.53 ± 1	1028.98 ± 0.98
x2 = 0.207	1073.6 ± 1.3	1064.59 ± 1.2	1055.02 ± 1.2
x2 = 0.3024	1124.55 ± 1.7	1115.44 ± 1.6	1106.04 ± 1.6
x2 = 0.4018	1173.96 ± 2.1	1164.58 ± 2.1	1155.65 ± 2
x2 = 0.5023	1219.47 ± 2.5	1210.5 ± 2.5	1202.05 ± 2.4
x2 = 0.5623	1243.6 ± 2.8	1235.27 ± 2.7	1226.97 ± 2.6
x2 = 0.7197	1292.24 ± 3.3	1286.05 ± 3.3	1277.69 ± 3.2
x2 = 0.9477	1345.16 ± 4	1336.93 ± 4	1328.47 ± 3.9
x2 = 0.9842	1359.24 ± 4.2	1351.31 ± 4.1	1342.85 ± 4.1
x2 = 0.9952	1365.36 ± 4.3	1356.87 ± 4.2	1348.47 ± 4.1

[4]
Conditions	refractive index
x2 = 0	1.4058 ± 0.0025
x2 = 0.0039	1.4063 ± 0.0025
x2 = 0.0076	1.4065 ± 0.0025
x2 = 0.0127	1.407 ± 0.003
x2 = 0.0304	1.4081 ± 0.0025
x2 = 0.0505	1.4092 ± 0.0025
x2 = 0.1003	1.4113 ± 0.0025
x2 = 0.1617	1.4141 ± 0.0025
x2 = 0.207	1.4149 ± 0.0025
x2 = 0.3024	1.4148 ± 0.0025
x2 = 0.4018	1.4142 ± 0.0025
x2 = 0.5023	1.4138 ± 0.0025
x2 = 0.5623	1.4123 ± 0.0025
x2 = 0.7197	1.4098 ± 0.0025
x2 = 0.9477	1.4094 ± 0.0025
x2 = 0.9842	1.4089 ± 0.0025

COCCO [2-methoxyethan-1-ol]
[1]
Conditions	mass density [kg/m3]
298.15 K	960.05 ± 6
308.15 K	950.81 ± 6.5
318.15 K	941.45 ± 6.9

Conditions	refractive index
[2]	1.4004 ± 0.0013

COCCO [2-methoxyethan-1-ol] + CCCCn1cc[n+](C)c1.F[P-](F)(F)(F)(F)F
[3], x2 = 0
Conditions	mass density [kg/m3]
298.15 K	960.05 ± 6
308.15 K	950.81 ± 6.5
318.15 K	941.45 ± 6.9

Conditions	refractive index
[4], x2 = 0	1.4004 ± 0.0013
